Numbered stars: 1 amine (or outer) side, 2 acyl side, 3 side chain; on linkers, the order of the positions; unused ones are H or OH. Square brackets hold non-standard residues; d marks the D form. Side chains are listed from the residue outwards. Peptide text beside a SMILES is read from it. * marks the point of attachment. C20 diacid = O=C(O)CCCCCCCCCCCCCCCCCCC(=O)*; γGlu = O=C(O)[C@H](CCC(=O)[*:2])N[*:1]; Desaminotyrosyl = O=C(CCc1ccc(O)cc1)*; AEEA = NCCOCCOCC(=O)O; Aib = CC(C)(N)C(=O)O

For one test, the target named is human GLP-1R (Homo sapiens, UniProt P43220). Description: [125I]-GLP-1 binding (SPA), human GLP-1 receptor. Details: expressed in transfected cells; crude membranes. The following applies: read-out: hGLP1R Ki, (nM) (SEM, n). A digest of the protocol:
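Crude-membrane binding assay; one membrane prep included 1 mM MgCl2 and 25 units/ml DNAse I during lysis. Assay buffer at pH 7.4 contains 0.1% (w/v) bacitracin and 0.003% (w/v) TWEEN-20. Ki is reported as geometric mean.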

For the next test, the target named is T1, human GIP receptor (Homo sapiens, UniProt P48546).
T1 construct: expressed in transfected cells; crude membranes
T1 sequence (P48546 22-466): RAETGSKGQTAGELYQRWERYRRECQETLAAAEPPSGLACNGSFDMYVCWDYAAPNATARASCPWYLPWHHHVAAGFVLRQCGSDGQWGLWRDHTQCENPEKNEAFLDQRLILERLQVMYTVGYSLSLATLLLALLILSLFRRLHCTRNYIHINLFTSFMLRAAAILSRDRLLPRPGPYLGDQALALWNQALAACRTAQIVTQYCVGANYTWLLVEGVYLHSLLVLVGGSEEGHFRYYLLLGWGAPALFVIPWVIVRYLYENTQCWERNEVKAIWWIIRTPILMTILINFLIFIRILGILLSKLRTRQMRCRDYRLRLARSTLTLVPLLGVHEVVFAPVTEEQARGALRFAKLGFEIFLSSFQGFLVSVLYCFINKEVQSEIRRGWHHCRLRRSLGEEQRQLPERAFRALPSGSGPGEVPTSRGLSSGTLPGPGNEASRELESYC
The test can be described thus: [125I]-GIP binding (SPA), human GIP receptor. The following applies: read-out: hGIPR Ki, nM (SEM, n).

The next test deals with T2, human Gcg receptor (Homo sapiens, UniProt P47871).
T2 construct: expressed in transfected cells; crude membranes
T2 sequence (P47871 26-477): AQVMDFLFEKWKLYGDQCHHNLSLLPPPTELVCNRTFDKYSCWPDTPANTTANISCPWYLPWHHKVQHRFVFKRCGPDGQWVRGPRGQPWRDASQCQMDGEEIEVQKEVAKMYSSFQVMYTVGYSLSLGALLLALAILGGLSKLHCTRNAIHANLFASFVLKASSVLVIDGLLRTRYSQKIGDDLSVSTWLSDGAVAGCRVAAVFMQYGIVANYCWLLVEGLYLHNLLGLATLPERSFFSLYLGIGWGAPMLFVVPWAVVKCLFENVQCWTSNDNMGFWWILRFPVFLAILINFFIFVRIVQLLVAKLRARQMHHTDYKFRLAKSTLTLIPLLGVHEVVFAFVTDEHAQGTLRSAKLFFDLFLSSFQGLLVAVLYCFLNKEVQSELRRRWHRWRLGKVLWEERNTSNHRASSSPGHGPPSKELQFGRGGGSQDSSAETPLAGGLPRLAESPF
Description: [125I]-Glucagon binding (SPA), human Gcg receptor. Conditions: read-out: hGLcgR Ki, nM (SEM, n). Summed up: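 Scintillation counts are taken after membranes and WGA beads incubate and settle for 12 hours at room temperature. Buffer is 25 mM HEPES, pH 7.4, with CaCl2, MgCl2, bacitracin and Tween-20. Ki values, from four-parameter IC50 fits, are geometric means over independent days.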

The target of test [1] is T3, gastric inhibitory peptide receptor (GIPR) (Homo sapiens, UniProt P48546).
T3 sequence (P48546 22-466): T1 sequence (P48546 22-466)
The test can be described thus: cAMP pharmacological functional assay in presence of casein, hGIPR. It counts as cell-based. Conditions: HEK293 cells expressing hGIPR, 0.1% Casein, geometric mean; read-out: hGIPR cAMP Rel EC50 nM (SEM, n).

The target of test [2] is human GLP-1 receptor (GLP-1R) (Homo sapiens, UniProt P43220). Description: cAMP pharmacological functional assay in presence of casein, hGLP-1R. It counts as cell-based. The following applies: HEK293 cells expressing hGLP-1R, 0.1% Casein, geometric mean; read-out: hGLP1R cAMP Rel EC50 nM (SEM, n).
human GLP-1 receptor (GLP-1R), sequence (P43220 24-463): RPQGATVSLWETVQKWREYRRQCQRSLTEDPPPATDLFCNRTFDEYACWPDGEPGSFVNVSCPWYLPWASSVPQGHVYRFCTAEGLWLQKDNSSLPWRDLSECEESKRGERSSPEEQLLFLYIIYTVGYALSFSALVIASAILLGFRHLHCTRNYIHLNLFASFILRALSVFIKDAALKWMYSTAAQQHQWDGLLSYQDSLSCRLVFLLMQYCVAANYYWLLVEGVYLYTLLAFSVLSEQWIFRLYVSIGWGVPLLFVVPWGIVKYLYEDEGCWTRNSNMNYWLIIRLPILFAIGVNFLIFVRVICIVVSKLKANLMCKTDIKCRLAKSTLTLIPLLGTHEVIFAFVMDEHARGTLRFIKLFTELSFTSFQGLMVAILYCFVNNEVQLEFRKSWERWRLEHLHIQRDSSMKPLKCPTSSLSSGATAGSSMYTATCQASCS

human GLP-1R, sequence (P43220 24-463): as above

For the compound `CC[C@H](C)[C@H](NC(=O)[C@H](CC(C)C)NC(=O)[C@H](Cc1ccc(O)cc1)NC(=O)[C@H](CCC(=O)O)NC(=O)[C@@H](NC(=O)[C@H](Cc1ccccc1)NC(=O)[C@H](C)NC(=O)C(C)(C)NC(=O)[C@H](CCC(N)=O)NC(=O)[C@H](C)NC(=O)[C@H](CCCCNC(=O)COCCOCCNC(=O)COCCOCCNC(=O)CC[C@H](NC(=O)CCCCCCCCCCCCCCCCCCC(=O)O)C(=O)O)NC(=O)[C@H](CCCCN)NC(=O)[C@H](CC(=O)O)NC(=O)[C@H](CC(C)C)NC(=O)[C@H](CC(C)C)NC(=O)[C@@H](NC(=O)[C@H](CO)NC(=O)[C@H](Cc1ccc(O)cc1)NC(=O)[C@H](CC(=O)O)NC(=O)[C@H](CO)NC(=O)[C@@H](NC(=O)[C@H](Cc1ccccc1)NC(=O)[C@@H](NC(=O)CNC(=O)[C@H](CCC(=O)O)NC(=O)C(C)(C)NC(=O)CCc1ccc(O)cc1)[C@@H](C)O)[C@@H](C)O)[C@@H](C)CC)[C@@H](C)CC)C(=O)N[C@@H](CCC(=O)O)C(=O)NCC(=O)NCC(=O)N1CCC[C@H]1C(=O)N[C@@H](CO)C(=O)N[C@@H](CO)C(=O)NCC(=O)N[C@@H](C)C(=O)N1CCC[C@H]1C(=O)N1CCC[C@H]1C(=O)N1CCC[C@H]1C(=O)N[C@@H](CO)C(N)=O` [Example 107] (Desaminotyrosyl-[Aib]EGTFTSDYSILLDKK([AEEA-AEEA-γGlu-C20 diacid])AQ[Aib]AFIEYLIEGGPSSGAPPPS-NH2), the values for the inhibition constant (Ki) at human GLP-1R, at human GIP receptor and at human Gcg receptor were 0.867 nM, 0.0425 nM and 303 nM, respectively. The figures for the EC50 in test [1] and in test [2] were 0.241 nM and 0.0539 nM, respectively.

Consider `CC[C@H](C)[C@H](NC(=O)[C@H](Cc1ccccc1)NC(=O)[C@H](C)NC(=O)C(C)(C)NC(=O)[C@H](CCC(N)=O)NC(=O)[C@H](C)NC(=O)[C@H](CCCCNC(=O)COCCOCCNC(=O)COCCOCCNC(=O)CC[C@H](NC(=O)CCCCCCCCCCCCCCCCCCC(=O)O)C(=O)O)NC(=O)[C@H](CCCCN)NC(=O)[C@H](CC(=O)O)NC(=O)[C@H](CC(C)C)NC(=O)[C@H](CC(C)C)NC(=O)[C@@H](NC(=O)[C@H](CO)NC(=O)[C@H](Cc1ccc(O)cc1)NC(=O)[C@H](CC(=O)O)NC(=O)[C@H](CO)NC(=O)[C@@H](NC(=O)[C@H](Cc1ccccc1)NC(=O)[C@@H](NC(=O)CNC(=O)[C@H](CCC(=O)O)NC(=O)C(C)(C)NC(=O)[C@@H](N)Cc1c[nH]cn1)[C@@H](C)O)[C@@H](C)O)[C@@H](C)CC)C(=O)N[C@@H](CCC(=O)O)C(=O)N[C@@H](Cc1ccc(O)cc1)C(=O)N[C@@H](CC(C)C)C(=O)N[C@@H](CC(C)C)C(=O)N[C@@H](CCC(=O)O)C(=O)NC(C)(C)C(=O)NCC(=O)N1CCC[C@H]1C(=O)N[C@@H](CO)C(=O)N[C@@H](CO)C(=O)NCC(=O)N[C@@H](C)C(=O)N1CCC[C@H]1C(=O)N1CCC[C@H]1C(=O)N1CCC[C@H]1C(=O)N[C@@H](CO)C(N)=O` [Example 15] (H-H[Aib]EGTFTSDYSILLDKK([AEEA-AEEA-γGlu-C20 diacid])AQ[Aib]AFIEYLLE[Aib]GPSSGAPPPS-NH2), for which the results for the Ki on human GLP-1R, at human GIP receptor and at human Gcg receptor were 2.19 nM, 0.284 nM and 130 nM, respectively. The concentration for a half-maximal effect (EC50) (commonly the concentration giving half of the maximal effect) in test [1] is 0.613 nM; in test [2], 0.0336 nM.

On to `CC[C@H](C)[C@H](NC(=O)[C@H](CC(C)C)NC(=O)[C@H](Cc1ccc(O)cc1)NC(=O)[C@H](CCC(=O)O)NC(=O)[C@@H](NC(=O)[C@H](Cc1ccccc1)NC(=O)[C@H](C)NC(=O)C(C)(C)NC(=O)[C@H](CCC(N)=O)NC(=O)[C@H](C)NC(=O)[C@H](CCCCNC(=O)COCCOCCNC(=O)COCCOCCNC(=O)CC[C@H](NC(=O)CCCCCCCCCCCCCCCCCCC(=O)O)C(=O)O)NC(=O)[C@H](CCCCN)NC(=O)[C@H](CC(=O)O)NC(=O)[C@H](CC(C)C)NC(=O)[C@](C)(CC(C)C)NC(=O)[C@@H](NC(=O)[C@H](CO)NC(=O)[C@H](Cc1ccc(O)cc1)NC(=O)[C@H](CC(=O)O)NC(=O)[C@H](CO)NC(=O)[C@@H](NC(=O)[C@H](Cc1ccccc1)NC(=O)[C@@H](NC(=O)CNC(=O)[C@H](CCC(=O)O)NC(=O)C(C)(C)NC(=O)[C@@H](N)Cc1ccc(O)cc1)[C@@H](C)O)[C@@H](C)O)[C@@H](C)CC)[C@@H](C)CC)C(=O)N[C@@H](CCC(=O)O)C(=O)NCC(=O)NCC(=O)N1CCC[C@H]1C(=O)N[C@@H](CO)C(=O)N[C@@H](CO)C(=O)NCC(=O)N[C@@H](C)C(=O)N1CCC[C@H]1C(=O)N1CCC[C@H]1C(=O)N1CCC[C@H]1C(=O)N[C@@H](CO)C(N)=O` [Example 20], for which the Ki (usually a dissociation constant, usually derived from enzyme kinetics or from competition with a known ligand) on human GLP-1R turned out to be 3.3 nM; on human GIP receptor, 0.0849 nM; at human Gcg receptor, 228 nM. For the same compound, the EC50 in test [1] was 0.0556 nM; in test [2], 0.117 nM.

As to `CC[C@H](C)[C@H](NC(=O)[C@H](CC(C)C)NC(=O)[C@H](Cc1ccc(O)cc1)NC(=O)[C@H](CCC(=O)O)NC(=O)[C@@H](NC(=O)[C@](C)(Cc1ccccc1)NC(=O)[C@H](C)NC(=O)C(C)(C)NC(=O)[C@H](CCC(N)=O)NC(=O)[C@H](C)NC(=O)[C@H](CCCCNC(=O)COCCOCCNC(=O)COCCOCCNC(=O)CC[C@H](NC(=O)CCCCCCCCCCCCCCCCCCC(=O)O)C(=O)O)NC(=O)[C@H](CCCCN)NC(=O)[C@H](CC(=O)O)NC(=O)[C@H](CC(C)C)NC(=O)[C@](C)(CC(C)C)NC(=O)[C@@H](NC(=O)[C@H](CO)NC(=O)[C@H](Cc1ccc(O)cc1)NC(=O)[C@H](CC(=O)O)NC(=O)[C@H](CO)NC(=O)[C@@H](NC(=O)[C@](C)(Cc1ccccc1)NC(=O)[C@@H](NC(=O)CNC(=O)[C@H](CCC(=O)O)NC(=O)C(C)(C)NC(=O)[C@@H](N)Cc1ccc(O)cc1)[C@@H](C)O)[C@@H](C)O)[C@@H](C)CC)[C@@H](C)CC)C(=O)N[C@@H](CCC(=O)O)C(=O)NCC(=O)NCC(=O)N1CCC[C@H]1C(=O)N[C@@H](CO)C(=O)N[C@@H](CO)C(=O)NCC(=O)N[C@@H](C)C(=O)N1CCC[C@H]1C(=O)N1CCC[C@H]1C(=O)N1CCC[C@H]1C(=O)N[C@@H](CO)C(N)=O` [Example 76], the inhibition constant Ki on human GLP-1R came to 2.64 nM; on human GIP receptor, 0.0659 nM; at human Gcg receptor, 14.4 nM. Moreover, the EC50 in test [1] came to 0.124 nM; in test [2] it was 0.125 nM.

On to `CC[C@H](C)[C@H](NC(=O)[C@H](CCCCN)NC(=O)[C@H](CC(=O)O)NC(=O)[C@H](CC(C)C)NC(=O)[C@H](CC(C)C)NC(=O)[C@@H](NC(=O)[C@H](CO)NC(=O)[C@H](Cc1ccc(O)cc1)NC(=O)[C@H](CC(=O)O)NC(=O)[C@H](CO)NC(=O)[C@@H](NC(=O)[C@H](Cc1ccccc1)NC(=O)[C@@H](NC(=O)CNC(=O)[C@H](CCC(=O)O)NC(=O)C(C)(C)NC(=O)[C@@H](N)Cc1ccc(O)cc1)[C@@H](C)O)[C@@H](C)O)[C@@H](C)CC)C(=O)N[C@@H](C)C(=O)N[C@@H](CCC(N)=O)C(=O)N[C@@H](CCCCNC(=O)COCCOCCNC(=O)COCCOCCNC(=O)CC[C@H](NC(=O)CCCCCCCCCCCCCCCCCCC(=O)O)C(=O)O)C(=O)N[C@@H](CCC(=O)O)C(=O)N[C@@H](Cc1ccccc1)C(=O)N[C@H](C(=O)N[C@@H](CCC(N)=O)C(=O)N[C@@H](Cc1ccc(O)cc1)C(=O)N[C@@H](CC(C)C)C(=O)N[C@@H](CC(C)C)C(=O)N[C@@H](CCC(=O)O)C(=O)NC(C)(C)C(=O)NCC(=O)N1CCC[C@H]1C(=O)N[C@@H](CO)C(=O)N[C@@H](CO)C(=O)NCC(=O)N[C@@H](C)C(=O)N1CCC[C@H]1C(=O)N1CCC[C@H]1C(=O)N1CCC[C@H]1C(=O)N[C@@H](CO)C(N)=O)[C@@H](C)CC` [Example 14] (H-Y[Aib]EGTFTSDYSILLDKIAQK([AEEA-AEEA-γGlu-C20 diacid])EFIQYLLE[Aib]GPSSGAPPPS-NH2; N-terminus assumed), for which the inhibition constant (Ki) at human GLP-1R came to 29.6 nM; on human GIP receptor, 0.0494 nM; on human Gcg receptor it was 160 nM. For the same compound, the EC50 in test [1] came to 0.284 nM; in test [2], 1.87 nM.
